Measurements reported in US4200635A, “Antibacterially active amides” (Beecham Group Limited, priority 1977, dated 1980).
≈ marks a conversion by molar mass, not a printed value. Read-outs that look alike come from different tables or passages of the source.

How the values were obtained:
Type in all cases: cell-based
[1] = test system: Neisseria catarrhalis 1502; test: MIC, serial dilution in nutrient agar, human bacteria
Bacillus subtilis 6633 = test: as above
Bord. bronchiseptica BO9 = test: MIC, veterinary bacteria; conditions: Bordetella bronchiseptica
M. dispar NCTC 10125 = test: in vitro MIC, anti-mycoplasmal activity; conditions: Friis' broth, microtiter method
Description: (§1) Tables 3 and 4 show the in vitro MIC values (μg/ml) of the compounds of Examples 1 to 9 against a number of mycoplasma organisms, determined in Friis' broth using the microtiter method.

M. fermentans MWKL4 = test: in vitro MIC, anti-mycoplasmal activity; conditions: Mycoplasmopsis fermentans, Friis' broth, microtiter method
Description: as §1

M. pneumoniae ATCC 15492 = test: in vitro MIC, anti-mycoplasmal activity; conditions: Mycoplasmoides pneumoniae, ATCC15492, Friis' broth, microtiter method
Description: as §1

M. pulmonis JB = test: in vitro MIC, anti-mycoplasmal activity; conditions: Mycoplasmopsis pulmonis, Friis' broth, microtiter method
Description: as §1

[2] = test system: M. suipneumoniae J2206/183b; test: in vitro MIC, anti-mycoplasmal activity; conditions: Mesomycoplasma hyopneumoniae, Friis' broth, microtiter method
Description: as §1

Strep. uberis SPU 1 = test: MIC, veterinary bacteria; conditions: Streptococcus uberis, SPU1
M. pneumoniae 427a = test: in vitro MIC, anti-mycoplasmal activity; conditions: Mycoplasmoides pneumoniae, Friis' broth, microtiter method
Past. multocida PAI = test: MIC, veterinary bacteria; conditions: Pasteurella multocida
M. suipneumoniae Str. 11 = test: in vitro MIC, anti-mycoplasmal activity; conditions: Mesomycoplasma hyopneumoniae, Friis' broth, microtiter method
Past. haemolytica PA5 = test: MIC, veterinary bacteria; conditions: Mannheimia haemolytica
[3] = test system: Haemophilus influenzae Q1; test: MIC, serial dilution in nutrient agar, human bacteria; conditions: nutrient agar containing 5% chocolated horse blood
[4] = test system: Strep. dysgalactiae SPD 1; test: MIC, veterinary bacteria; conditions: Streptococcus dysgalactiae, SPD1
Staph. aureus 152 = test: MIC, veterinary bacteria; conditions: Staphylococcus aureus
Staph. aureus Oxford = test: MIC, serial dilution in nutrient agar, human bacteria; conditions: Staphylococcus aureus
Staph. aureus B4 = test: MIC, veterinary bacteria; conditions: Staphylococcus aureus
[5] = test system: Haemophilus influenzae Wy21; test: MIC, serial dilution in nutrient agar, human bacteria; conditions: Haemophilus influenzae, WY21
[6] = test system: Pasteurella multocida 1633; test: as above; conditions: nutrient agar containing 5% chocolated horse blood
Staph. aureus Russell = test: as above; conditions: Staphylococcus aureus
Strep. pneumoniae CN33 = test: as above; conditions: Streptococcus pneumoniae
M. dispar H225 = test: in vitro MIC, anti-mycoplasmal activity; conditions: M. dispar H225; Friis' broth, microtiter method; read-out: M.I.C.
Description: as §1

[7] = test system: Neisseria flavescens 8263; test: MIC, serial dilution in nutrient agar, human bacteria; conditions: nutrient agar containing 5% chocolated horse blood
[8] = Bord. bronchiseptica BO9, read-out: M.I.C.
[9] = Strep. uberis SPU 1, read-out: M.I.C.
[10] = Past. multocida PAI, read-out: M.I.C.
[11] = Past. haemolytica PA5, read-out: M.I.C.
[12] = Strep. dysgalactiae SPD 1, read-out: M.I.C.
[13] = Staph. aureus B4, read-out: M.I.C.
[14] = Staph. aureus Russell, nutrient agar containing 5% chocolated horse blood, read-out: M.I.C.
[15] = Neisseria catarrhalis 1502, nutrient agar containing 5% chocolated horse blood, read-out: M.I.C.
[16] = Bacillus subtilis 6633, nutrient agar containing 5% chocolated horse blood, read-out: M.I.C.
[17] = Strep. pneumoniae CN33, nutrient agar containing 5% chocolated horse blood, read-out: M.I.C.
[18] = Staph. aureus Oxford, nutrient agar containing 5% chocolated horse blood, read-out: M.I.C.

Compound	MIC (Bord. bronchiseptica BO9; [8])	MIC (M. dispar NCTC 10125)	MIC (M. fermentans MWKL4)	MIC (M. pulmonis JB)	MIC [2]	MIC (Strep. uberis SPU 1; [9])	MIC (M. pneumoniae 427a)	MIC (Past. multocida PAI; [10])	MIC (M. suipneumoniae Str. 11)	MIC (Past. haemolytica PA5; [11])	MIC [3]	MIC [4, 12]	MIC (Staph. aureus 152)	MIC (Staph. aureus Oxford)	MIC (Staph. aureus B4; [13])	MIC [6]	MIC (Staph. aureus Russell; [14])	MIC [1, 15]	MIC (Bacillus subtilis 6633; [16])	MIC (Strep. pneumoniae CN33; [17])	also measured
COC(=O)CCCCCCCCNC(=O)C=C(C)CC1OCC(CC2OC2C(C)C(C)O)C(O)C1O (stereo not drawn) [Example 7, 8-Methoxycarbonyloctylamide of monic acid A]	2 µg/mL (≈ 3.89 µM)	0.156 µg/mL (≈ 0.304 µM)	< 0.02 µg/mL	< 0.02 µg/mL	10 µg/mL (≈ 19.5 µM)	0.125 µg/mL (≈ 0.243 µM)	10 µg/mL (≈ 19.5 µM)	1 µg/mL (≈ 1.95 µM)	1.25 µg/mL (≈ 2.43 µM)	8 µg/mL (≈ 15.6 µM)	0.5 µg/mL (≈ 0.973 µM)	0.0625 µg/mL (≈ 0.122 µM)	8 µg/mL (≈ 15.6 µM)	10 µg/mL (≈ 19.5 µM)	4 µg/mL (≈ 7.79 µM)	1 µg/mL (≈ 1.95 µM)	25 µg/mL (≈ 48.7 µM)				MIC ([1]; Neisseria, 1502): 0.1 µg/mL (≈ 0.195 µM); MIC (Bacillus subtilis 6633; Bacillus subtilis, 6633): 2.5 µg/mL (≈ 4.87 µM); MIC (M. pneumoniae ATCC 15492): 10 µg/mL (≈ 19.5 µM); MIC [5]: 0.5 µg/mL (≈ 0.973 µM)
C=CCNC(=O)C=C(C)CC1OCC(CC2OC2C(C)C(C)O)C(O)C1O (stereo not drawn) [Example 8, Allylamide of monic acid A]	1.25 µg/mL (≈ 3.26 µM)	0.078 µg/mL (≈ 0.203 µM)	0.039 µg/mL (≈ 0.102 µM)	0.039 µg/mL (≈ 0.102 µM)	1.25 µg/mL (≈ 3.26 µM)	0.625 µg/mL (≈ 1.63 µM)	10 µg/mL (≈ 26.1 µM)	1.25 µg/mL (≈ 3.26 µM)	0.625 µg/mL (≈ 1.63 µM)	0.625 µg/mL (≈ 1.63 µM)	> 100 µg/mL	0.156 µg/mL (≈ 0.407 µM)	20 µg/mL (≈ 52.2 µM)		5 µg/mL (≈ 13 µM)	0.05 µg/mL (≈ 0.13 µM)	100 µg/mL (≈ 261 µM)	100 µg/mL (≈ 261 µM)	2.5 µg/mL (≈ 6.52 µM)	5 µg/mL (≈ 13 µM)	MIC (M. dispar H225): 0.078 µg/mL (≈ 0.203 µM); MIC (Staph. aureus Oxford; [18]): 2.5 µg/mL (≈ 6.52 µM)
COC(=O)CCNC(=O)C=C(C)CC1OCC(CC2OC2C(C)C(C)O)C(O)C1O (stereo not drawn) [Example 10, 2-Methoxycarbonylethylamide of monic acid A]												20 µg/mL (≈ 46.6 µM)									MIC (Bord. bronchiseptica BO9; BO9): 20 µg/mL (≈ 46.6 µM); MIC (Strep. uberis SPU 1): 2.5 µg/mL (≈ 5.82 µM); MIC (Past. multocida PAI): 0.625 µg/mL (≈ 1.46 µM); MIC (Past. haemolytica PA5; PA5): 5 µg/mL (≈ 11.6 µM); MIC (Staph. aureus B4; B4): 80 µg/mL (≈ 186 µM)
CNC(=O)C=C(C)CC1OCC(CC2OC2C(C)C(C)O)C(O)C1O (stereo not drawn) [Example 2, N-Methylamide of monic acid A]		< 0.5 µg/mL	7.8 µg/mL (≈ 21.8 µM)	1 µg/mL (≈ 2.8 µM)	< 0.5 µg/mL		125 µg/mL (≈ 350 µM)				0.2 µg/mL (≈ 0.56 µM)					2.5 µg/mL (≈ 6.99 µM)	25 µg/mL (≈ 69.9 µM)		10 µg/mL (≈ 28 µM)	25 µg/mL (≈ 69.9 µM)	MIC (Staph. aureus Oxford; [18]): 2.5 µg/mL (≈ 6.99 µM); MIC [7]: 1 µg/mL (≈ 2.8 µM)
COC(=O)CCCCCNC(=O)C=C(C)CC1OCC(CC2OC2C(C)C(C)O)C(O)C1O (stereo not drawn) [Example 9, 5-Methoxycarbonylpentylamide of monic acid A]		0.312 µg/mL (≈ 0.662 µM)	0.039 µg/mL (≈ 0.0827 µM)	0.039 µg/mL (≈ 0.0827 µM)	1.25 µg/mL (≈ 2.65 µM)		5 µg/mL (≈ 10.6 µM)	10 µg/mL (≈ 21.2 µM)	0.625 µg/mL (≈ 1.33 µM)	10 µg/mL (≈ 21.2 µM)	0.2 µg/mL (≈ 0.424 µM)		20 µg/mL (≈ 42.4 µM)	25 µg/mL (≈ 53 µM)	20 µg/mL (≈ 42.4 µM)	0.2 µg/mL (≈ 0.424 µM)		< 0.02 µg/mL	10 µg/mL (≈ 21.2 µM)		MIC (Strep. pneumoniae CN33; CN33): 2.5 µg/mL (≈ 5.3 µM); MIC (Bord. bronchiseptica BO9; BO9): 10 µg/mL (≈ 21.2 µM); MIC (M. dispar H225): 0.312 µg/mL (≈ 0.662 µM); MIC (Strep. uberis SPU 1): 0.625 µg/mL (≈ 1.33 µM); MIC [4]: 0.312 µg/mL (≈ 0.662 µM); MIC (Staph. aureus Russell): 100 µg/mL (≈ 212 µM)
